{
  "source": "patent US8697742B2",
  "about": "“BCRP/ABCG2 inhibitor” (Kabushiki Kaisha Yakult Honsha, priority 2005, dated 2014)",
  "key": {"[1]": {"test_system": "HCT116 cells", "assay": "In vivo tumour growth, HCT116 tumour in nude mice", "set-up": "species or system human", "conditions": "solvent + CPT-11 10 mg/kg/day i.v. for seven days (no compound); day 21; parental HCT116", "from_the_text": "(§1) A solvent was solely administered to a control group. On the day 21 from the start of administration, a tumor was extirpated from each mice and weighed, and the tumor growth inhibition ratio IR (%) was derived from the following equation: Tumor growth inhibition ratio IR(%)=(1−average tumor weight of each administration group/average tumor weight of control group)×100."}, "[2]": {"test_system": "K562/MDR cells", "assay": "Effect on paclitaxel (multidrug) resistance of human MDR1 gene-transduced K562 cells", "type": "cell-based", "conditions": "Homo sapiens; concentration for 50% reduction of relative paclitaxel resistance value; K562/MDR vs K562; 72 hours; read-out: Effect of overcoming resistance EC50", "from_the_text": "After completion of culturing, the number of viable cells was counted by use of TetraColor ONE according to the manufacture's instruction manual."}, "[3]": {"test_system": "K562 cells", "assay": "Intracellular accumulation of SN-38 in parental K562 cells", "type": "cell-based, human", "conditions": "compound 500 ng/mL, 37° C. for 30 minutes, FIG. 2", "method": "(§2) K562 cells or human BCRP gene-transduced K562 cells (K562/BCRP cells) (see JP-A-2003-063989) were suspended in 10% FBS/RPMI1640 (1 mL) (5×10^6 cells/mL), and SN-38 and each of Compounds 1, 39, and 46 of the present invention (final concentration: 500 ng/mL) were added to the resultant suspension, followed by incubation at 37° C. for 30 minutes. Thereafter, centrifugation was performed (2° C., 1,400×g, 1 min), and the resultant supernatant was removed. Ice-cooled PBS containing 1% BSA was added to the thus-pelletized cells, and the cells were resuspended, followed by centrifugation (2° C., 1,400×g, 1 min) for washing the cells. This washing procedure was performed again, followed by addition of PBS (250 μL) and sonication of the cells. To the resultant cell sonicate, methanol (250 μL) and 10% zinc sulfate solution (10 μL) were added, and the resultant mixture was stirred, followed by centrifugation (2° C., 12, 500×g, 5 min) and collection of the supernatant. The thus-collected supernatant was dispensed in a white 96-well microplate for fluorescence intensity measurement (200 μL/well), and then the amount of SN-38 contained in the supernatant was measured by use of a microplate fluorometer [SPECTRA max GEMINI XS (trademark), product of Molecular Devices] […]"}, "[4]": {"test_system": "K562/BCRP cells", "assay": "Intracellular accumulation of SN-38 in BCRP-expressing cells", "type": "cell-based, human", "conditions": "compound 500 ng/mL, 37° C. for 30 minutes, FIG. 2", "method": "as §2"}, "[5]": {"test_system": "P388/BCRP cells", "assay": "Effect of overcoming SN-38 resistance of human BCRP gene-transduced P388 cells", "type": "cell-based, mouse", "conditions": "with SN-38, 48 hours, FIG. 1", "method": "(§3) Mouse leukemia P388 cells or human BCRP gene-transduced P388 cells (P388/BCRP cells) (see JP-A-2003-063989) were suspended in 10% FBS/RPMI1640 containing 2-mercaptethanol (50 μM), and the resultant suspension was added to a 96-well microplate (1×10^4 cells/50 μL/well). Thereafter, a solution of each of Compounds 1, 14, 21, 31, 39, and 41 of the present invention and SN-38 in 100 FBS/RPNI1640 (25 μL) was added to each of the wells, followed by culturing at 5% CO2 and 37° C. for 48 hours. After completion of culturing, the number of viable cells was counted by use of TetraColor ONE according to the manufacture's instruction manual."}, "[6]": {"test_system": "A549/SN-38-4 cells", "assay": "Effect of overcoming SN-38 resistance of BCRP-expressing A549/SN-38-4 cells", "type": "cell-based, human", "conditions": "Homo sapiens, A549, 48 h, concentration for 50% reduction of relative SN-38 resistance value (IC50 A549/SN-38-4 / IC50 A549); 48 hours culture with SN-38; read-out: Effect of overcoming resistance EC50", "procedure,_shortened": "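A549/SN-38-4 cells and parental A549 cells were seeded at 2×10^3 per well in Ham's F-12 with 10% FBS and precultured overnight at 37 °C. Viable cells were counted colorimetrically with TetraColor ONE after drug culture. A relative resistance value was derived.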"}, "[7]": {"test_system": "P388 cells", "assay": "Sensitivity of parental P388 cells to SN-38", "type": "cell-based, mouse", "conditions": "with SN-38, 48 hours, FIG. 1", "method": "as §3"}, "[8]": {"test_system": "HCT116/BCRP cells", "assay": "Effect of overcoming anticancer agent resistance in vivo, HCT116/BCRP tumour in nude mice", "set-up": "species or system human", "conditions": "day 21; for Tumor weight Mean ± S.D.: BALB/c nude mice; for Tumor growth inhibition ratio IR: vs control group", "from_the_text": "as §1"}, "[9]": {"conditions": "compound 6.3 mg/kg/day + CPT-11 10 mg/kg/day i.v. once a day for seven days"}, "[10]": {"conditions": "compound 12.5 mg/kg/day + CPT-11 10 mg/kg/day i.v. once a day for seven days"}},
  "note": "Where a name gives a salt, the structure may show the parent alone.",
  "data": [
    {"smiles": "CCc1c2c(nc3ccc(OC(=O)N4CCC(N5CCCCC5)CC4)cc13)-c1cc3c(c(=O)n1C2)COC(=O)[C@]3(O)CC", "note": "[CPT-11, irinotecan hydrochloride]", "values": [
      {"measurement": "Tumor weight Mean ± S.D.", "setting": "[1]", "value": "0.37 ± 0.08", "unit": "g"}
    ]},
    {"smiles": "COc1ccc(/C(C#N)=C/c2ccc([N+](=O)[O-])s2)cc1OC", "note": "[Compound 1, (Z)-2-(3,4-dimethoxy-phenyl)-3-(5-nitro-thiophen-2-yl)-acrylonitrile]", "values": [
      {"measurement": "EC50", "setting": "[2]", "value": "> 5", "unit": "µg/mL"},
      {"measurement": "Amount of accumulation of SN-38 in the K562 cells (parental cells)", "setting": "[3]", "value": "virtually unaffected"},
      {"measurement": "Amount of accumulation of SN-38 in the K562/BCRP cells", "setting": "[4]", "value": "increased the amount of accumulation of SN-38"},
      {"measurement": "Effect of overcoming the SN-38 resistance of the P388/BCRP cells", "setting": "[5]", "value": "potent effect of overcoming the SN-38 resistance"},
      {"measurement": "EC50", "setting": "[6]", "value": 0.006, "unit": "µg/mL"},
      {"measurement": "Effect on sensitivity of the P388 cells to SN-38", "setting": "[7]", "value": "did not affect the sensitivity"}
    ]},
    {"smiles": "COc1ccc(/C(C#N)=C/c2ccc(-c3cccc([N+](=O)[O-])c3)o2)cc1OC", "note": "[Compound 21, (Z)-2-(3,4-dimethoxy-phenyl)-3-[5-(3-nitro-phenyl)-furan-2-yl]-acrylonitrile]", "values": [
      {"measurement": "EC50", "setting": "[2]", "value": "> 5", "unit": "µg/mL"},
      {"measurement": "Effect of overcoming the SN-38 resistance of the P388/BCRP cells", "setting": "[5]", "value": "potent effect of overcoming the SN-38 resistance"},
      {"measurement": "EC50", "setting": "[6]", "value": 0.02, "unit": "µg/mL"},
      {"measurement": "Effect on sensitivity of the P388 cells to SN-38", "setting": "[7]", "value": "did not affect the sensitivity"}
    ]},
    {"smiles": "COc1ccc(/C(C#N)=C/c2ccncc2)cc1OC.CS(=O)(=O)O", "note": "[Compound 32, (Z)-2-(3,4-dimethoxy-phenyl)-3-pyridin-4-yl-acrylonitrile methanesulfonate]", "values": [
      {"measurement": "Tumor weight Mean ± S.D.", "setting": "[8]; [9]", "value": "0.75 ± 0.24", "unit": "g"},
      {"measurement": "Tumor growth inhibition ratio IR", "setting": "[8]; [9]", "value": 40.8, "unit": "%"},
      {"measurement": "Tumor weight Mean ± S.D.", "setting": "[8]; [10]", "value": "0.52 ± 0.11", "unit": "g"},
      {"measurement": "Tumor growth inhibition ratio IR", "setting": "[8]; [10]", "value": 59.0, "unit": "%"},
      {"measurement": "EC50", "setting": "[2]", "value": "> 5", "unit": "µg/mL"},
      {"measurement": "EC50", "setting": "[6]", "value": 0.028, "unit": "µg/mL"}
    ]},
    {"smiles": "COc1ccc(/C(C#N)=C/c2ccc[nH]2)cc1OC", "note": "[Compound 39, (Z)-2-(3,4-dimethoxy-phenyl)-3-(1H-pyrrol-2-yl)-acrylonitrile]", "values": [
      {"measurement": "EC50", "setting": "[2]", "value": "> 5", "unit": "µg/mL"},
      {"measurement": "Amount of accumulation of SN-38 in the K562 cells (parental cells)", "setting": "[3]", "value": "virtually unaffected"},
      {"measurement": "Amount of accumulation of SN-38 in the K562/BCRP cells", "setting": "[4]", "value": "increased the amount of accumulation of SN-38"},
      {"measurement": "Effect of overcoming the SN-38 resistance of the P388/BCRP cells", "setting": "[5]", "value": "potent effect of overcoming the SN-38 resistance"},
      {"measurement": "EC50", "setting": "[6]", "value": 0.037, "unit": "µg/mL"},
      {"measurement": "Effect on sensitivity of the P388 cells to SN-38", "setting": "[7]", "value": "did not affect the sensitivity"}
    ]},
    {"smiles": "COc1ccc(/C(C#N)=C/c2cnc[nH]2)cc1OC", "note": "[Compound 41, (Z)-2-(3,4-dimethoxy-phenyl)-3-(3H-imidazol-4-yl)-acrylonitrile]", "values": [
      {"measurement": "EC50", "setting": "[2]", "value": "> 5", "unit": "µg/mL"},
      {"measurement": "Effect of overcoming the SN-38 resistance of the P388/BCRP cells", "setting": "[5]", "value": "potent effect of overcoming the SN-38 resistance"},
      {"measurement": "EC50", "setting": "[6]", "value": 0.28, "unit": "µg/mL"},
      {"measurement": "Effect on sensitivity of the P388 cells to SN-38", "setting": "[7]", "value": "did not affect the sensitivity"}
    ]}
  ]
}
